We go through 10 compounds from ChEMBL document CHEMBL1828619, “Identification of pyridazin-3-one derivatives as potent, selective histamine H₃ receptor inverse agonists with robust wake activity” (Bioorg Med Chem Lett, 2011).

The structures appear in SMILES notation.

The target of data set [1] is Histamine H3 receptor (Homo sapiens, UniProt Q9Y5N1). In words: Displacement of [3H]NAMH from human cloned histamine 3 receptor expressed in CHO cells. Type of data set: cell-based. In general terms: In a radioligand displacement assay an active substance lowers the binding of a labelled ligand.
For data set [2], the target named is Histamine H3 receptor (Rattus norvegicus, UniProt Q9QYN8). In words: Displacement of [3H]NAMH from rat cloned histamine 3 receptor expressed in CHO cells. Type of data set: cell-based.
Data set [3] in a line: Oral bioavailability in rat. Type of data set: ADME, organism-based. The note with it: in vivo.
Data set [4] is described as follows: Ratio of drug level in brain to plasma in iv dosed rat. Type of data set: ADME, organism-based. As to conditions: read-out: BPR.

Sequence of Histamine H3 receptor (Rattus norvegicus, UniProt Q9QYN8) (Q9QYN8 whole entry): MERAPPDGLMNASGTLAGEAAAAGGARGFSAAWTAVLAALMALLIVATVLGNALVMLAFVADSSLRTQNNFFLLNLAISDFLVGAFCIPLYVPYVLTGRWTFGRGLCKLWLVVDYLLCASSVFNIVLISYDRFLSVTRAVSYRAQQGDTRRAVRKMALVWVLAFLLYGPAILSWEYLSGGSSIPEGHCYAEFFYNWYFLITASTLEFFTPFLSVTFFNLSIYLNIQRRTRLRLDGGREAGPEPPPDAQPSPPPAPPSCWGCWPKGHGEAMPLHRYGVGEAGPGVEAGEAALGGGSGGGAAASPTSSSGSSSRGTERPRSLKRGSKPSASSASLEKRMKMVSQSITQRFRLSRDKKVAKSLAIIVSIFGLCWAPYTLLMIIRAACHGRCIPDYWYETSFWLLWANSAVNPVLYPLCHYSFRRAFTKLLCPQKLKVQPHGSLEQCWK
Sequence of Histamine H3 receptor (Homo sapiens, UniProt Q9Y5N1) (Q9Y5N1 whole entry): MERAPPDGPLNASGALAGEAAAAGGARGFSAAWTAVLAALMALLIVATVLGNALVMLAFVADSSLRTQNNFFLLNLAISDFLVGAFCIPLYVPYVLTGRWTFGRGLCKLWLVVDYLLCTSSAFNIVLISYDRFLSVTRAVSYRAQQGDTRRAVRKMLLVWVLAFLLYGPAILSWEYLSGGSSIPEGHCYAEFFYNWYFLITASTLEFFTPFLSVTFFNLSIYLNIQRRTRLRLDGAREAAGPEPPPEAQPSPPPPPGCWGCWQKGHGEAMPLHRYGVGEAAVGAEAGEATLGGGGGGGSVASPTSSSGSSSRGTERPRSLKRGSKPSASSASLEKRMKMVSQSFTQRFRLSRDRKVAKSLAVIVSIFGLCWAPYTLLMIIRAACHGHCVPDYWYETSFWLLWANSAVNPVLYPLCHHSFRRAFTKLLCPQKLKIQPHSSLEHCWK

Turning to `C[C@@H]1CCCN1CCCOc1ccc(-c2ccc(=O)[nH]n2)cc1C#N`, the Ki was determined as 38 nM at Histamine H3 receptor [1] and 111 nM on Histamine H3 receptor [2].
For `C[C@@H]1CCCN1CCCOc1ccc(-c2n[nH]c(=O)cc2-c2ccccn2)cc1`, the bioavailability in data set [3] was < 10%. Moreover, the Ki on Histamine H3 receptor [1] was 12 nM; on Histamine H3 receptor [2], 70 nM. The Kp in data set [4] is < 1.
Take `C[C@@H]1CCCN1CCCOc1ccc(-c2ccc(=O)n(CCO)n2)cc1`: the inhibition constant (Ki) at Histamine H3 receptor [1] was 3 nM; at Histamine H3 receptor [2] it was 9.5 nM.
In the same order, the values of `C[C@@H]1CCCN1CCCOc1ccc(-c2ccc(=O)[nH]n2)cn1` are 35 nM and 70 nM.
Turning to `Cc1cc(=O)[nH]nc1-c1ccc(OCCCN2CCC[C@H]2C)cc1`, the values for the Ki on Histamine H3 receptor [1] and on Histamine H3 receptor [2] were 2.9 nM and 12 nM, respectively.
In the same order, the values of `Cc1cc(-c2ccc(OCCCN3CCC[C@H]3C)cc2)n[nH]c1=O` are 3.4 nM and 8.7 nM.
On to `C[C@@H]1CCCN1CCCOc1ccc(-c2ccc(=O)n(CCF)n2)cc1`, for which the results for the Ki on Histamine H3 receptor [1] and on Histamine H3 receptor [2] were 3.4 nM and 11 nM, respectively.
The like results for `C[C@@H]1CCCN1CCCOc1c(F)cc(-c2ccc(=O)[nH]n2)cc1F` were, in that order, 7.1 nM and 40 nM.
In the same order, the values of `C[C@@H](COc1ccc(-c2ccc(=O)n(C)n2)cc1)CN1CCC[C@H]1C` are 15 nM and 52 nM.
In the same order, the values of `C[C@@H]1CCCN1CCCOc1ccc(-c2ccc(=O)n(C)n2)cc1Cl` are 4.4 nM and 14 nM.

One may read the Ki as the equilibrium dissociation constant of an inhibitor or competing ligand from its target. Low values mean a stronger hold on the target, high ones a looser hold on the target. Broadly, the bioavailability is dose-corrected exposure relative to a reference, in per cent. Read a low bioavailability as poor availability.
